These results are taken from US20130129695A1, “METHODS FOR TREATING OR INHIBITING INFECTION BY CLOSTRIDIUM DIFFICILE” (priority 2010, published 2013).

Each structure is given as a SMILES string. Bounds are passed on as bounds.

In assay [1] the test system is C. difficile strain MMX3581 (clinical). The assay can be described thus: Minimum Inhibitory Concentration (MIC) assay. The class given is cell-based, Clostridium difficile. The following applies: Clostridioides difficile, growth 18-24 hours at 37° C. The protocol:
(§1) The MIC assays are carried out in a final volume of 100 μL in 96-well clear round-bottom plates according to methods established by the Clinical Laboratory Standards Institute (CLSI). Briefly, test compound suspended in 100% DMSO (or another suitable solubilizing buffer) is added to an aliquot of media appropriate for a given pathogen to a total volume of 50 μL. This solution is serially diluted by 2-fold into successive tubes of the same media to give a range of test compound concentrations appropriate to the assay. To each dilution of test compound in media is added 50 ? L of a bacterial suspension from an overnight culture growth in media appropriate to a given pathogen. Final bacterial inoculum is approximately 10^5-10^6 CFU/well. […] Ciprofloxacin is used as an antibiotic-positive control in each screening assay. Each of the bacterial cultures that are available from the American Type Culture Collection (ATCC, www.atcc.org) is identified by its ATCC number.

Assay [2] has as its system C. difficile strain ATCC 700057 (MMX 4381). The assay can be described thus: Minimum Inhibitory Concentration (MIC) assay. The class given is cell-based, Clostridium difficile. The following applies: Clostridioides difficile, ATCC700057; C. difficile ATCC 700057 (MMX 4381); growth 18-24 hours at 37° C. The protocol: as §1
Another assay concerns CD3299 riboswitch. The assay can be described thus: In-line probing assay, binding of ligands to CD3299 riboswitch. Set-up: species or system Clostridium difficile. The procedure:
An in-line probing assay, as described in Regulski and Breaker, “In-line probing analysis of riboswitches”, (2008), Methods in Molecular Biology, Vol 419, pp 53-67, the contents of which are incorporated by reference, is used to estimate the dissociation binding constants for the interaction of each of the ligands described herein with a CD3299 riboswitch amplified from Clostridium difficile. Precursor mRNA leader molecules are prepared by in vitro transcription from templates generated by PCR and [5′-^32P]-labeling using methods described previously (Regulski and Breaker, In-line probing analysis of riboswitches (2008), Methods in Molecular Biology Vol 419, pp 53-67). Approximately 5 nM of labeled RNA precursor is incubated for 41 hours at 25° C. in 20 mM MgCl2, 50 mM Tris/HCl (pH 8.3 at 25° C.) in the presence or absence of a fixed concentration of each ligand. Binding to the CD3299 riboswitches are measured 100 ? M. In-line cleavage products are separated on 10% polyacrylamide gel electrophoresis (PAGE), and the resulting gel is visualized using a Molecular Dynamics Phosphorimager. […]
In-line probing exploits the natural ability of RNA to self-cleave at elevated pH and metal ion concentrations (pH≈8.3, 25 mM MgCl2) in a conformation-dependent manner. […] These ligand-dependent changes in RNA cleavage can be readily detected by denaturing gel electrophoresis. […]

As to `Cc1cc2nc3c(=O)[nH]c(=O)nc-3n(CCNCc3ccc(Cl)cc3)c2cc1C` [Compound 1], the MIC in assay [1] and in assay [2] was ≤ 64 µg/mL throughout.

As for `Cc1cc2nc3c(=O)[nH]c(=O)nc-3n(CCNCc3ccccc3)c2cc1C` [Compound 2], the MIC in assay [1] and in assay [2] was ≤ 64 µg/mL in each case.

In the case of `Cc1cc2nc3c(=O)[nH]c(=O)nc-3n(C[C@H](O)[C@H](O)[C@H](O)COP(=O)(O)O)c2cc1C` [FMN, Flavin mononucleotide], in the assay on CD3299 riboswitch, the “binding to the CD3299 riboswitch (in words)” value is on record as “does not bind”.
